Patent US11596644B2, “Method for treating post-prandial hypoglycemia” (AVOLYNT, priority 2018, dated 2023)

Assays:
[1] = Oral pharmacokinetics and excretion in rats; assay type: in vivo, rat
Excerpt: Accordingly, the SGLT1 inhibitor compounds of Formula I or Formula II are locally acting in the gut, and have poor systemic exposure. […] Systemic exposure (e.g., Cmax) can be measured by methods well known in the art, including liquid chromatography mass spectrometry.

rat SGLT1 = target: T1, rat SGLT1 (Rattus norvegicus, UniProt P53790); test: Inhibition of radiolabeled α-MG uptake into COS-7 cells transfected with rat SGLT1 (Dixon plot); assay type: cell-based
T1 construct: expressed in transfected cells; host or cells: COS-7
T1 sequence (P53790 1-665): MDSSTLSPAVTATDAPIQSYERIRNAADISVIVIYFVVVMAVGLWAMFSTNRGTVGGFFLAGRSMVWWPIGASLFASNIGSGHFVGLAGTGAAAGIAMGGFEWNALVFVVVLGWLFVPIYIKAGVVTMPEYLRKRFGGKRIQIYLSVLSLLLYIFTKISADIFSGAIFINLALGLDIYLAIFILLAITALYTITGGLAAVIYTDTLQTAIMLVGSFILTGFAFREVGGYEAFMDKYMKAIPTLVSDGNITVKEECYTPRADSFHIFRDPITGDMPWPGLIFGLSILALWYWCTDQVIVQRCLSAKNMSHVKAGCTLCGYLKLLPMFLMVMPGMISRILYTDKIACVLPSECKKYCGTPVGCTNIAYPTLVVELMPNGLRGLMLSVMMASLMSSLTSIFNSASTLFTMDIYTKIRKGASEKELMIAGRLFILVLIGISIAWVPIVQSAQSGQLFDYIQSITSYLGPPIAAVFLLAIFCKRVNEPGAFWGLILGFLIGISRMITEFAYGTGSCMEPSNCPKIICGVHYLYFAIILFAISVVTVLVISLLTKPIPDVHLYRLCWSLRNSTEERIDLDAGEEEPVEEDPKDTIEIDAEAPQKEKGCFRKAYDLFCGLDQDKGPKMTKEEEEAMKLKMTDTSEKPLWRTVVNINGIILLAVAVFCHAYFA
Method: Selective inhibition study. Inhibition constants (Ki) of mizagliflozin for rat and human SGLT1 and SGLT2 were determined measuring concentration-dependent effects of test compound on uptake of radiolabeled methyl-α-D-glucopyranoside (α-MG) into COS-7 cells transiently transfected with cloned SGLT1 or SGLT2. Mizagliflozin was assessed at concentrations from 1 to 30 μM and 3 to 100 μM for human and rat SGLT2, respectively. It was assessed at concentrations from 30 nM to 1 μM and 10 to 30 nM for human and rat SGLT1, respectively. α-MG test concentrations were 0.3 and 1 mM. Data were analyzed and Ki determined using Dixon plots of initial transport rates. […] Inhibition constants were also determined for human SGLT1 and SGLT2.

[2] = test system: healthy adult male volunteers; test: Repeat dose study in humans, pharmacodynamic parameters after meals; assay type: in vivo, human; details: repeat dosing; for AUC 0-5 GIP / AUC 0-5 GLP-1 (active) / AUC 0-5 Insulin / AUC 0-5 glucose / GIP (peak) / GLP-1 (active) (peak) / Glucose (peak) / Insulin (peak) / Time (h) to peak, GIP / Time (h) to peak, GLP-1 (active) / Time (h) to peak, glucose / Time (h) to peak, insulin: Day 3 after breakfast
Method: Repeat dose study in humans. Oral doses of 2 mg, 5 mg, 10 mg, 20 mg, of mizagliflozin, placebo or miglitol 50 mg per dose three times daily to healthy adult male volunteers by a randomized, placebo-controlled, parallel-group, double-blind comparison method. The dose was orally administered with approximately 150 mL of water once daily immediately before breakfast on Days 1 and 13, and three times daily immediately before every meal on Days 3 to 12.
Changes in the following parameters and ΔAUC from 0 to t* hours after breakfast, lunch, and evening meal were measured: Blood glucose level, Serum insulin concentration, Blood active GLP-1 concentration, and Blood total GIP concentration, where t=0.5, 1, 1.5, 2, and 3 (t=0.5, 1, 1.5, 2, 3, and 5 only after breakfast).
In the miglitol group, hyperglycemia was suppressed after breakfast, lunch, and evening meal, as compared to the placebo group. […] These pharmacodynamic effects more or less persisted during 10-day repeated administration. There was no correlation between plasma mizagliflozin concentration and the pharmacodynamic effects. Measurements in Tables 5-8 were performed on Day 3 after breakfast.

[3] = test system: Diet-induced obese (DIO) marmoset; test: Two-week dosing and OGTT in diet-induced obese marmosets; assay type: in vivo
Method: Study on plasma glucose levels in marmosets. Mizagliflozin was evaluated in the Diet-induced obese (DIO) marmoset, a polygenic non-human primate model of obesity. Rimonabant, a canabinoid receptor (CB-1) antagonist that was marketed by Sanofi-Aventis for weight loss in obese patients, was administered at a maximal effective dose of 20 mg/kg twice daily as a positive control. Mizagliflozin was administered orally twice daily to DIO male marmosets (n=8/group) for 2 weeks at BID doses of 3 and 30 mg/kg/day (or only vehicle, aqueous hydroxypropylmethyl-cellulose 0.1%). Effects on body weight and body composition, and serum chemistry parameters were measured and glucose excursions during post-treatment OGTTs were also determined after administration of an oral loading dose of glucose (2.0 g/kg).

bioavailability ([1]; male, rat, plasma, po): 0.01 to 0.08%
excreted in the feces ([1]; rats, oral dosing): > 97 % of orally administered dose
mode of inhibition of SGLT1 (Dixon plot intersection pattern) (rat SGLT1; rat SGLT1): competitive with substrate
Ki (rat SGLT1; α-MG 0.3 and 1 mM, COS-7 cells): 31.2 nM
signs of diarrhea ([3]; 2 weeks dosing): No signs of diarrhea were observed
Compound: Cc1cc(OCCCNCC(C)(C)C(N)=O)ccc1Cc1c(O[C@@H]2O[C@H](CO)[C@@H](O)[C@H](O)[C@H]2O)n[nH]c1C(C)C [mizagliflozin, 3-(3-{4-[3-(β-D-glucopyranosyloxy)-5-isopropyl-1H-pyrazol-4-ylmethyl-]-3-methylphenoxy}propylamino)-2,2-dimethylpropionamide]
Cmax and AUCt versus dose ([1]; oral 3, 10 and 30 mg/kg, fasted male rats): increased with dose, but not in a clear dose proportional manner
AUC 0-5 GIP ([2]; 2 mg per dose): 1096.21 pg·h/mL
AUC 0-5 GLP-1 (active) ([2]; 2 mg per dose): 21.21 pmol·h/L
AUC 0-5 Insulin ([2]; 2 mg per dose): 166.61 uU*h/ml
AUC 0-5 glucose ([2]; 2 mg per dose): 550.6 mg·h/dL
GIP (peak) ([2]; 2 mg per dose): 285 pg/mL
GLP-1 (active) (peak) ([2]; 2 mg per dose): 5.98 pmol/L
Glucose (peak) ([2]; 2 mg per dose): 131.6 mg/dL
Insulin (peak) ([2]; 2 mg per dose): 58.05 uU/ml
Time (h) to peak, GIP ([2]; 2 mg per dose): 3 h
Time (h) to peak, GLP-1 (active) ([2]; 2 mg per dose): 0.5 h
Time (h) to peak, glucose ([2]; 2 mg per dose): 1 h
Time (h) to peak, insulin ([2]; 2 mg per dose): 1.5 h
AUC 0-5 GIP ([2]; 5 mg per dose): 1057.89 pg·h/mL
AUC 0-5 GLP-1 (active) ([2]; 5 mg per dose): 22.36 pmol·h/L
AUC 0-5 Insulin ([2]; 5 mg per dose): 146.08 uU*h/ml
AUC 0-5 glucose ([2]; 5 mg per dose): 524.6 mg·h/dL
GIP (peak) ([2]; 5 mg per dose): 280.88 pg/mL
GLP-1 (active) (peak) ([2]; 5 mg per dose): 5.95 pmol/L
Glucose (peak) ([2]; 5 mg per dose): 118.6 mg/dL
Insulin (peak) ([2]; 5 mg per dose): 44 uU/ml
Time (h) to peak, GIP ([2]; 5 mg per dose): 3 h
Time (h) to peak, GLP-1 (active) ([2]; 5 mg per dose): 0.5 h
Time (h) to peak, glucose ([2]; 5 mg per dose): 1.5 h
Time (h) to peak, insulin ([2]; 5 mg per dose): 2 h
AUC 0-5 GIP ([2]; 10 mg per dose): 839.7 pg·h/mL
AUC 0-5 GLP-1 (active) ([2]; 10 mg per dose): 41.12 pmol·h/L
AUC 0-5 Insulin ([2]; 10 mg per dose): 176.7 uU*h/ml
AUC 0-5 glucose ([2]; 10 mg per dose): 541.3 mg·h/dL
GIP (peak) ([2]; 10 mg per dose): 240.75 pg/mL
GLP-1 (active) (peak) ([2]; 10 mg per dose): 10.01 pmol/L
Glucose (peak) ([2]; 10 mg per dose): 121.3 mg/dL
Insulin (peak) ([2]; 10 mg per dose): 55.13 uU/ml
Time (h) to peak, GIP ([2]; 10 mg per dose): 3 h
Time (h) to peak, GLP-1 (active) ([2]; 10 mg per dose): 0.5 h
Time (h) to peak, glucose ([2]; 10 mg per dose): 1.5 h
Time (h) to peak, insulin ([2]; 10 mg per dose): 1 h
AUC 0-5 GIP ([2]; 20 mg per dose): 755.01 pg·h/mL
AUC 0-5 GLP-1 (active) ([2]; 20 mg per dose): 24.74 pmol·h/L
AUC 0-5 Insulin ([2]; 20 mg per dose): 142.25 uU*h/ml
AUC 0-5 glucose ([2]; 20 mg per dose): 522.4 mg·h/dL
GIP (peak) ([2]; 20 mg per dose): 217.15 pg/mL
GLP-1 (active) (peak) ([2]; 20 mg per dose): 6.01 pmol/L
Glucose (peak) ([2]; 20 mg per dose): 121 mg/dL
Insulin (peak) ([2]; 20 mg per dose): 47.69 uU/ml
Time (h) to peak, GIP ([2]; 20 mg per dose): 3 h
Time (h) to peak, GLP-1 (active) ([2]; 20 mg per dose): 0.5 h
Time (h) to peak, glucose ([2]; 20 mg per dose): 1.5 h
Time (h) to peak, insulin ([2]; 20 mg per dose): 1.5 h
active GLP-1 concentration ([2]; healthy adult male volunteers): a tendency toward increase in active GLP-1 concentration was seen
hyperglycemia after breakfast, lunch, and evening meal ([2]; healthy adult male volunteers): suppressed after breakfast, lunch, and evening meal on a level equivalent to the miglitol group
insulin secretion ([2]; healthy adult male volunteers): inhibition of insulin secretion along with inhibition of hyperglycemia was seen the same as in the miglitol group
total GIP concentration ([2]; healthy adult male volunteers): increase in total GIP concentration was seen on a level equivalent to the miglitol group
total GLP-1 concentration ([2]; healthy adult male volunteers): increase in total GLP-1 concentration was seen on a level equivalent to the miglitol group
effects on body weight, body composition (fat or lean mass) and serum chemistry parameters ([3]; 3 and 30 mg/kg, oral twice daily, 2 weeks): no significant effects
glucose excursions during post-treatment OGTT ([3]; two weeks dosing, glucose 2.0 g/kg): blunting of the glucose excursions
